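Compound exposure: 48 hours, 5 concentrations, 96-well plates. GI50 = concentration required for 50% inhibition of growth. Definition used: TGI = concentration required for complete inhibition of growth.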 Some results are limits rather than exact numbers.

The source of these data is PubChem BioAssay (NCI).

Among the test systems are NCI-H460 lung; MDA-MB-231 breast; SK-MEL-5 melanoma; SNB-19 CNS; OVCAR-8 ovarian; MOLT-4 leukemia; SW-620 colon; SK-OV-3 ovarian; NCI-H23 lung; HCC-2998 colon.
Holding throughout (experiment): inhibition of tumour cell growth, NCI panel, 48 h

Take `[Cl][Hg][Cl]`: the GI50 is 15.7 µM in the assay with NCI-H460 lung; 17.1 µM in the assay on MDA-MB-231 breast; 15.4 µM with SK-MEL-5 melanoma; 17.9 µM with SNB-19 CNS; 21.6 µM in the assay on OVCAR-8 ovarian; 4.08 µM in the assay with MOLT-4 leukemia. Also, the GI50 was 5.4 µM in the assay with SW-620 colon, 20.2 µM in the assay with SK-OV-3 ovarian, 17.2 µM with NCI-H23 lung and 17.5 µM with HCC-2998 colon. Moreover, the TGI with NCI-H460 lung is 35.5 µM; in the assay with MDA-MB-231 breast it was 31.7 µM; in the assay on SK-MEL-5 melanoma it was 30.5 µM; in the assay on SNB-19 CNS, 32 µM; in the assay on OVCAR-8 ovarian, 56.3 µM; in the assay on MOLT-4 leukemia it was greater than 37.7 µM. Further, the TGI in the assay on SW-620 colon stood at 40.2 µM; in the assay with SK-OV-3 ovarian it was 34.5 µM; in the assay with NCI-H23 lung, 40.5 µM; in the assay on HCC-2998 colon, 31.7 µM.
As for `COc1ccc(-c2cc(=O)c3ccc(C)nc3[nH]2)cc1`, the GI50 is greater than 100 µM with NCI-H460 lung and 48 µM in the assay on SK-MEL-5 melanoma. Moreover, the TGI in the assay on NCI-H460 lung, in the assay on MDA-MB-231 breast, with SK-MEL-5 melanoma, in the assay with SNB-19 CNS, with OVCAR-8 ovarian and with MOLT-4 leukemia was greater than 100 µM throughout. The TGI with SW-620 colon, in the assay with SK-OV-3 ovarian, in the assay on NCI-H23 lung and in the assay with HCC-2998 colon was greater than 100 µM each time.
For the molecule `S=C(Nc1ccc(Br)cc1)Nc1ccc(Br)cc1`, the GI50 was 3.69 µM in the assay on NCI-H460 lung; 25.5 µM with MDA-MB-231 breast; 5.4 µM in the assay with SK-MEL-5 melanoma; 17.2 µM in the assay on SNB-19 CNS; 18.2 µM in the assay on OVCAR-8 ovarian; 6.59 µM in the assay with MOLT-4 leukemia. The GI50 with SW-620 colon was 4.43 µM; in the assay on SK-OV-3 ovarian, greater than 100 µM; with NCI-H23 lung, 3.47 µM; in the assay on HCC-2998 colon, 5.04 µM. The TGI in the assay with NCI-H460 lung, in the assay on MDA-MB-231 breast, with SK-MEL-5 melanoma, in the assay with SNB-19 CNS, in the assay with OVCAR-8 ovarian and with MOLT-4 leukemia was greater than 100 µM in each case. The TGI with SW-620 colon, with SK-OV-3 ovarian, in the assay with NCI-H23 lung and in the assay on HCC-2998 colon was greater than 100 µM each time.
With `COC(=O)CCc1c[nH]c2ccc(N(CCCl)CCCl)cc12`, the GI50 was 0.322 µM in the assay with NCI-H460 lung; 20.1 µM in the assay with MDA-MB-231 breast; 2.39 µM in the assay with SK-MEL-5 melanoma; 3.43 µM in the assay on SNB-19 CNS; 3.05 µM with OVCAR-8 ovarian; 0.826 µM in the assay with MOLT-4 leukemia. The GI50 was 3.41 µM in the assay on SW-620 colon, 1.93 µM with SK-OV-3 ovarian, 1.25 µM in the assay with NCI-H23 lung and 8.33 µM in the assay on HCC-2998 colon. The TGI with NCI-H460 lung is 12.9 µM; with MDA-MB-231 breast it was greater than 92.4 µM; in the assay with SK-MEL-5 melanoma, 14.8 µM; in the assay on SNB-19 CNS, greater than 76.2 µM; in the assay with OVCAR-8 ovarian, greater than 60.5 µM; with MOLT-4 leukemia, greater than 100 µM. Further, the TGI came to 37 µM in the assay with SW-620 colon, 33.5 µM in the assay with SK-OV-3 ovarian, 39.7 µM in the assay on NCI-H23 lung and 27.1 µM in the assay on HCC-2998 colon.
`OCc1ccc(-c2ccc(-c3ccc(CO)o3)[se]2)o1`: the GI50 in the assay with NCI-H460 lung is greater than 72.7 µM; with MDA-MB-231 breast it was greater than 83.7 µM; in the assay on SK-MEL-5 melanoma, 34.8 µM; in the assay with SNB-19 CNS it was greater than 100 µM; in the assay with OVCAR-8 ovarian, 55.8 µM; in the assay on MOLT-4 leukemia it was 41.2 µM. In addition, the GI50 in the assay on SW-620 colon, in the assay with SK-OV-3 ovarian, with NCI-H23 lung and with HCC-2998 colon was greater than 100 µM in each case. For the same molecule, the TGI in the assay with NCI-H460 lung, with MDA-MB-231 breast, in the assay on SK-MEL-5 melanoma, with SNB-19 CNS, with OVCAR-8 ovarian and with MOLT-4 leukemia was greater than 100 µM throughout. The TGI with SW-620 colon, with SK-OV-3 ovarian, in the assay on NCI-H23 lung and in the assay with HCC-2998 colon was greater than 100 µM in each case.
For `Cc1ccc(C)c2c1C(O)(C#Cc1ccccc1)c1ccccc1C2(O)C#Cc1ccccc1` (configuration not stated), the GI50 with NCI-H460 lung is 2.38 µM; in the assay on MDA-MB-231 breast, 2.84 µM; in the assay with SK-MEL-5 melanoma it was 1.63 µM; in the assay with SNB-19 CNS it was 3.74 µM; in the assay with OVCAR-8 ovarian, 3.82 µM; with MOLT-4 leukemia, 2.5 µM. Also, the GI50 in the assay with SW-620 colon is 3.03 µM; in the assay with SK-OV-3 ovarian, 3.44 µM; in the assay on NCI-H23 lung, 3.23 µM; with HCC-2998 colon, 5.56 µM. For the same molecule, the TGI is 12 µM in the assay with NCI-H460 lung; greater than 100 µM with MDA-MB-231 breast; 4.99 µM in the assay with SK-MEL-5 melanoma; greater than 100 µM in the assay with SNB-19 CNS; greater than 100 µM in the assay with OVCAR-8 ovarian; greater than 23.3 µM with MOLT-4 leukemia. Also, the TGI in the assay on SW-620 colon is greater than 100 µM; in the assay on SK-OV-3 ovarian, greater than 100 µM; with NCI-H23 lung, greater than 29.5 µM; in the assay on HCC-2998 colon, greater than 100 µM.
Turning to `Nc1ccc(C2=NN(c3ccccc3)C(c3ccc(Cl)cc3)C2)cc1` (configuration not stated), the GI50 in the assay with NCI-H460 lung was 3.94 µM; in the assay on MDA-MB-231 breast it was 2.38 µM; with SK-MEL-5 melanoma, 2.71 µM; in the assay on SNB-19 CNS it was 2.9 µM; in the assay on OVCAR-8 ovarian it was 3.15 µM; with MOLT-4 leukemia it was 2.23 µM. In addition, the GI50 is 1.67 µM in the assay with SW-620 colon, 9.09 µM in the assay on SK-OV-3 ovarian, 2.12 µM with NCI-H23 lung and 1.86 µM in the assay with HCC-2998 colon. In addition, the TGI in the assay with NCI-H460 lung came out at 16.3 µM; with MDA-MB-231 breast it was 6.98 µM; with SK-MEL-5 melanoma, 8.48 µM; with SNB-19 CNS, 14.1 µM; with OVCAR-8 ovarian, 13.2 µM; with MOLT-4 leukemia, 6.61 µM. In addition, the TGI was found to be 3.35 µM in the assay with SW-620 colon, 29.9 µM in the assay on SK-OV-3 ovarian, 5.09 µM in the assay with NCI-H23 lung and 3.29 µM with HCC-2998 colon.
In the case of `COc1ccc(-c2cn[nH]c2-c2cc(OC)c3c(c2)OCO3)cc1`, the GI50 with NCI-H460 lung is 0.335 µM; in the assay on MDA-MB-231 breast it was 0.643 µM; in the assay on SK-MEL-5 melanoma, 0.277 µM; in the assay with SNB-19 CNS it was 2.97 µM; with OVCAR-8 ovarian it was 0.423 µM; in the assay on MOLT-4 leukemia, 0.541 µM. For the same molecule, the GI50 is 0.141 µM in the assay with SW-620 colon, 0.386 µM with SK-OV-3 ovarian, 0.43 µM with NCI-H23 lung and 0.649 µM in the assay with HCC-2998 colon. Besides, the TGI with NCI-H460 lung came to 11.3 µM; in the assay with MDA-MB-231 breast, 8.35 µM; in the assay on SK-MEL-5 melanoma it was 8.7 µM; with SNB-19 CNS, 54.6 µM; in the assay on OVCAR-8 ovarian it was 15.1 µM; in the assay on MOLT-4 leukemia it was 15.1 µM. In addition, the TGI in the assay on SW-620 colon was 23.2 µM; in the assay with SK-OV-3 ovarian, 5.45 µM; in the assay on NCI-H23 lung, 14.7 µM; in the assay on HCC-2998 colon, 11.8 µM.
